Laboratory results as given in patent publication US12600714B2, “Substituted pyrazinecarboxamide compounds for treating diseases related to EGFR mutation” (WIGEN BIOMEDICINE TECHNOLOGY (SHANGHAI) CO., LTD., priority 2020, dated 2026).

Tests used:
EGFR (del19/T790M/C797S) = experiment: HTRF inhibitory activity assay against EGFR (del19/T790M/C797S) enzyme; assay type: biochemical
Procedure, shortened: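 Wild-type or mutant EGFR preincubated with serially diluted compound 10 min at 28 °C, then reacted 40 min at room temperature with biotinylated TK substrate and ATP. Phosphorylation detected by HTRF (Eu-cryptate anti-TK antibody, streptavidin-XL665, 60 min), 665/615 nm ratio; % inhibition and IC50 vs control.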

[1] = target: Ba/F3 (EGFR^del19/T790M/C797S) triple-mutant cells (Homo sapiens, UniProt P00533, T790M/C797S, cells depend on it, form not given); experiment: Antiproliferative activity against Ba/F3 (EGFR del19/T790M/C797S) triple-mutant cells, Cell Titer Glow; assay type: cell-based; conditions: three days after addition of compounds; read-out: Antiproliferative activity BaF3(EGFR^del19/T790M/C797S) IC50
Description: (§1) Antiproliferative Activity of the Compounds Disclosed Herein Against Ba/F3 (EGFR^del19/T790M/C797S) Triple-Mutant Cells and A431 (EGFR WT) Cells
(§2) • 3000 Ba/F3 cells carrying EGFR (del19/T790M/C797S) or 2000 A431 cells were seeded in a 384-well plate. After one day, serially diluted compounds were added (up to 500 nM for Ba/F3 cells and up to 10 μM for A431 cells). Three days after the addition of the compounds, Cell Titer Glow was added to evaluate cell growth and the percentage cell growth inhibition by the compounds and the IC50 values were calculated.

A431 (EGFR WT) cells = experiment: Antiproliferative activity against A431 (EGFR WT) cells, Cell Titer Glow; assay type: cell-based; conditions: Homo sapiens, A-431, 72 h; three days after addition of compounds; read-out: Antiproliferative activity A431 wild-type (WT) IC50
Description: as §1, §2

Ba/F3 (EGFR^del19/T790M/C797S) triple-mutant cells, sequence (P00533 with tags, fused parts or gaps DEL746-750/T790M/C797S, form open): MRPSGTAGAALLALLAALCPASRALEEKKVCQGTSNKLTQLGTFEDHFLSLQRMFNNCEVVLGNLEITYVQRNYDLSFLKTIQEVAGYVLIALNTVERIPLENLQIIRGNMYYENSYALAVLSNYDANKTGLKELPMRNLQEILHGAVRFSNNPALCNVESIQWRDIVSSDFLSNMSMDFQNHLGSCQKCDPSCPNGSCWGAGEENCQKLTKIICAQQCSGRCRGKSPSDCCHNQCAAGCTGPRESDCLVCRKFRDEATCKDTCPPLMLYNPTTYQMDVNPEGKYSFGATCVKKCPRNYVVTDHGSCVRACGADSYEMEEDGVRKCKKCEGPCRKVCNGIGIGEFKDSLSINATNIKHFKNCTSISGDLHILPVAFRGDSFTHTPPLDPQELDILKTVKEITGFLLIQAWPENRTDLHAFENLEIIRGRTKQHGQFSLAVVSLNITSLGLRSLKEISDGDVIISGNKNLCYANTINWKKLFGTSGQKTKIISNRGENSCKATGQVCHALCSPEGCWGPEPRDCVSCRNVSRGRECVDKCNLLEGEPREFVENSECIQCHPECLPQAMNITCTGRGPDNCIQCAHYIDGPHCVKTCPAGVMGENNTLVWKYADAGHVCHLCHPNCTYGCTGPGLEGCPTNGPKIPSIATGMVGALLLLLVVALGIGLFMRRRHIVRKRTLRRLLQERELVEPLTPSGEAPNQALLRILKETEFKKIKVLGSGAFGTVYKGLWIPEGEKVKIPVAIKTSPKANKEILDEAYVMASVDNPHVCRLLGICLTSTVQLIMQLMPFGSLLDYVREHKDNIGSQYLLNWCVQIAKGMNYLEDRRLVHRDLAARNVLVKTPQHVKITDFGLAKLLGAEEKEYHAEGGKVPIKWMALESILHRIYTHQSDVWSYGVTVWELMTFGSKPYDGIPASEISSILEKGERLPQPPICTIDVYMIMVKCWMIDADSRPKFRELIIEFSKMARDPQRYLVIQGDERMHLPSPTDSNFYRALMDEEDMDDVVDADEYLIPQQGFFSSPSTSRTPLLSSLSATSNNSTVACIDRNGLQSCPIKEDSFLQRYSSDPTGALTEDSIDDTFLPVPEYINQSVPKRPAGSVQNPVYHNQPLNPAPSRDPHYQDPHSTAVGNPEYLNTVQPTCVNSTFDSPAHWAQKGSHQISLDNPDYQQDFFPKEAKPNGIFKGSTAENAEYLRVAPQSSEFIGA

Row | SMILES | EGFR (del19/T790M/C797S) inhibition (%) (0.3 nM compound) (EGFR (del19/T790M/C797S)) | GI50 [1] | IC50 (A431 (EGFR WT) cells)
1 | Cc1c[nH]nc1-c1nc(C(N)=O)c(Nc2ccc(N3CCC(N4CCN(C)CC4)CC3)cc2)nc1NC1CCOCC1 [compound 111] | + (+ indicates an inhibition less than or equal to 20%) | 105 nM | 120 nM
2 | CN1CCN(C2CCN(c3ccc(Nc4nc(NCCS(C)(=O)=O)c(-c5ccccc5)nc4C(N)=O)cc3)CC2)CC1 [compound 54] | + (+ indicates an inhibition less than or equal to 20%) | > 100 nM | 3500 nM
3 | CN1CCN(C2CCN(c3ccc(Nc4nc(NC5CCOCC5)c(-c5ccc(O)cc5)nc4C(N)=O)cc3)CC2)CC1 [compound 96] | ++ (++ indicates an inhibition from 20% to 50%) | > 100 nM | 1600 nM
4 | CN1CCN(C2CCN(c3ccc(Nc4nc(N[C@H]5C[C@H](O)C5)c(-c5cccc6[nH]ccc56)nc4C(N)=O)cc3)CC2)CC1 [compound 525] | +++ (+++ indicates an inhibition greater than 50%.) | 25 nM | 60 nM
5 | Cc1cc(-c2nc(C(N)=O)c(Nc3ccc(N4CCC(N5CCN(C)CC5)CC4)cc3)nc2NC2CCOCC2)ccn1 [compound 108] | +++ (+++ indicates an inhibition greater than 50%.) | 23 nM | 190 nM
6 | CN1CCN(c2ccc(Nc3nc(NC4CCOCC4)c(-c4ccncc4)nc3C(N)=O)cc2)CC1 [compound 118] | ++ (++ indicates an inhibition from 20% to 50%) | 82 nM | 4100 nM
7 | Cc1cc(Nc2nc(NC3CCOCC3)c(-c3cc[nH]n3)nc2C(N)=O)ccc1N1CCC(N2CCN(C)CC2)CC1 [compound 177] | ++ (++ indicates an inhibition from 20% to 50%) | 19 nM | 690 nM
8 | CN1CCN(C2CCN(c3ccc(Nc4nc(N[C@H]5C[C@@H](O)C5)c(-c5ccccc5)nc4C(N)=O)cc3)CC2)CC1 [compound 31] | +++ (+++ indicates an inhibition greater than 50%.) | 65 nM | 540 nM
9 | CN1CCN(C2CCN(c3ccc(Nc4nc(N[C@H]5C[C@H](O)C5)c(-c5ccccc5)nc4C(N)=O)cc3)CC2)CC1 [compound 32] | +++ (+++ indicates an inhibition greater than 50%.) | 26 nM | 190 nM
10 | CN1CCN(C2CCN(c3ccc(Nc4nc(NC5CCOCC5)c(-c5ccnc6[nH]ccc56)nc4C(N)=O)cc3)CC2)CC1 [compound 512] | +++ (+++ indicates an inhibition greater than 50%.) | 6 nM | 20 nM
11 | CN1CCN(Cc2ccc(Nc3nc(NC4CCOCC4)c(-c4ccncc4)nc3C(N)=O)cc2)CC1 [compound 120] | + (+ indicates an inhibition less than or equal to 20%) | 119 nM | 680 nM
12 | CC(C)Nc1nc(Nc2ccc(N3CCC(N4CCN(C)CC4)CC3)cc2)c(C(N)=O)nc1-c1ccncc1 [compound 611] | +++ (+++ indicates an inhibition greater than 50%.) | 21 nM | 360 nM
13 | CN1CCN(C2CCN(c3ccc(Nc4nc(N[C@@H]5CCC[C@@H]5O)c(-c5cccc6[nH]ccc56)nc4C(N)=O)cc3)CC2)CC1 [compound 529] | +++ (+++ indicates an inhibition greater than 50%.) | 18 nM | 50 nM
14 | Cc1n[nH]cc1-c1nc(C(N)=O)c(Nc2ccc(N3CCC(N4CCN(C)CC4)CC3)cc2)nc1NC1CCOCC1 [compound 110] | + (+ indicates an inhibition less than or equal to 20%) | > 100 nM | 460 nM
15 | CN(C)c1ccc(Nc2nc(NC3CCOCC3)c(-c3ccncc3)nc2C(N)=O)cc1 [compound 124] | + (+ indicates an inhibition less than or equal to 20%) | > 100 nM | > 10000 nM
16 | CCc1cc(Nc2nc(NC3CCOCC3)c(-c3cc[nH]n3)nc2C(N)=O)ccc1N1CCC(N2CCN(C)CC2)CC1 [compound 184] | – | 18 nM | 980 nM

Row | SMILES | EGFR (del19/T790M/C797S) inhibition (%) (0.3 nM compound) (EGFR (del19/T790M/C797S)) | GI50 [1] | IC50 (A431 (EGFR WT) cells)
17 | Cc1cc(Nc2nc(NC3CCOCC3)c(-c3ccncc3)nc2C(N)=O)ccc1N1CCN(C)CC1 [compound 148] | – | 68 nM | 1700 nM
18 | COc1cc(Nc2nc(NC3CCOCC3)c(-c3cc[nH]n3)nc2C(N)=O)ccc1N1CCC(N2CCN(C)CC2)CC1 [compound 417] | – | 57 nM | 190 nM
19 | NC(=O)c1nc(-c2ccncc2)c(NC2CCOCC2)nc1Nc1ccccc1 [compound 119] | + (+ indicates an inhibition less than or equal to 20%) | > 100 nM | > 10000 nM
20 | CN1CCN(C2CCN(c3ccc(Nc4nc(NC5CCOCC5)c(-c5cccc6[nH]cnc56)nc4C(N)=O)cc3)CC2)CC1 [compound 540] | – | 48 nM | 1200 nM
21 | CN1CCN(C2CCN(c3ccc(Nc4nc(NCC(C)(C)O)c(-c5cccc6[nH]ccc56)nc4C(N)=O)cc3)CC2)CC1 [compound 528] | +++ (+++ indicates an inhibition greater than 50%.) | 13 nM | 70 nM
22 | CN1CCN(C2CCN(c3ccc(Nc4nc(NC5CCOCC5)c(-c5ccccc5N(C)C)nc4C(N)=O)cc3)CC2)CC1 [compound 85] | – | 357 nM | 1500 nM
23 | CN1CCN(C2CCN(c3ccc(Nc4nc(NC5CCOCC5)c(-c5cccc(N(C)C)c5)nc4C(N)=O)cc3)CC2)CC1 [compound 86] | – | 21 nM | 1700 nM
24 | CC(C)Nc1nc(Nc2ccc(N3CCC(N4CCN(C)CC4)CC3)cc2)c(C(N)=O)nc1-c1cc[nH]n1 [compound 616] | +++ (+++ indicates an inhibition greater than 50%.) | 32 nM | 360 nM
25 | CN1CCN(C2CCN(c3ccc(Nc4nc(NC5CCOCC5)c(-c5cccnc5)nc4C(N)=O)cc3)CC2)CC1 [compound 37] | + (+ indicates an inhibition less than or equal to 20%) | 48 nM | > 2000 nM
26 | Cc1cc(Nc2nc(NC3CCOCC3)c(-c3cccc4[nH]ccc34)nc2C(N)=O)ccc1N1CCC(N2CCN(C)CC2)CC1 [compound 513] | – | 57 nM | 560 nM
27 | CN1CCN(C2CCN(c3ccc(Nc4nc(NC5CCOCC5)c(-c5cc[nH]n5)nc4C(N)=O)cc3C3CC3)CC2)CC1 [compound 421] | – | 36 nM | 530 nM
28 | CN1CCN(C2CCN(c3ccc(Nc4nc(NC5CCOCC5)c(-c5ccncc5)nc4C(N)=O)cc3F)CC2)CC1 [compound 122] | +++ (+++ indicates an inhibition greater than 50%.) | 40 nM | 380 nM
29 | CN1CCN(C2CCN(c3ccc(Nc4nc(NC5CCOCC5)c(-c5cncs5)nc4C(N)=O)cc3)CC2)CC1 [compound 88] | – | 52 nM | 280 nM
30 | NC(=O)c1nc(-c2ccncc2)c(NC2CCOCC2)nc1Nc1ccc(CN2CCOCC2)cc1 [compound 123] | ++ (++ indicates an inhibition from 20% to 50%) | 140 nM | > 10000 nM
31 | Cc1cc(Nc2nc(NC3CCOCC3)c(-c3ccnc4[nH]ccc34)nc2C(N)=O)ccc1N1CCC(N2CCN(C)CC2)CC1 [compound 514] | – | 48 nM | 250 nM
32 | CO[C@H]1CC[C@H](Nc2nc(Nc3ccc(N4CCC(N5CCN(C)CC5)CC4)cc3)c(C(N)=O)nc2-c2ccccc2)CC1 [compound 115] | – | 214 nM | 2000 nM
